Results published in patent publication US20070015813A1, “Treatment of protein folding disorders” (QUEEN'S UNIVERSITY AT KINGSTON, priority 2005, published 2007).

Columns and labels:
Format in all cases: biochemical
[1] = target: T1, Aβ1-40 (Homo sapiens, UniProt P05067); test: “Seeded” Thioflavin T aggregation assay for Aβ1-40; settings: HFIP pretreatment omitted
T1 construct: Aβ^1-40 (AnaSpec, San Jose, Calif., lots 14212, 34862 and 34889); purchased AnaSpec, San Jose, Calif
Excerpt: The same procedure as described in Thioflavin T Aggregation Assay was used for “seeded” ThT aggregarion assay for Aβ^1-40 but the HFIP pretreatment was omitted. The presence of small Aβ^1-40 aggregates in the untreated batches caused aggregation to begin immediately rather than after a 12-24 hr. lag period.

[2] = target: T1, Aβ1-40; test: Kinetic Thioflavin T (ThT) aggregation assay of Aβ1-40; settings: 20 μM Aβ1-40, 4 μM ThT, pH 7.4, 37° C., kinetic ThT assay
Procedure: Aβ^1-40 (1.0 mg) was pre-treated in a 1.5 mL microfuge tube with 1,1,1,3,3,3-hexafluoroisopropanol (HFIP, 1 mL) and sonicated for 20 min. to disassemble any pre-formed Aβ aggregates. The HFIP was removed with a stream of argon and the Aβ dissolved in Tris base (5.8 mL, 20 mM, pH 10.5). The pH was adjusted to 7.4 with concentrated HCl and the solution filtered using a syringe filter (0.2 μm). This solution was used for circular dichroism studies or diluted with an equal volume of 8 μM Thioflavin T (ThT) in Tris-HCl (20 mM, pH 7.4, 300 mM NaCl) for the ThT aggregation assay.
(§1) Aliquots (200 μL) of Aβ^1-40, Aβ^1-42, tau441 or α-synuclein with ThT or ThS were added to wells of a black polystyrene 96-well plate, followed by 2 μL of a compound in DMSO (various concentrations), or DMSO alone (controls). For α-synuclein, sodium dodecyl sulfate solution (2.0 μL, 30 mM) was also added to each well to induce aggregation. Incubations were performed in triplicate and were taken to contain 20 μM Aβ^1-40 or Aβ^1-42, 6 μM tau441 or 4 μM α-synuclein. Plates were covered with clear polystyrene lids and incubated at 37° C. in a GENios microplate reader obtained from Tecan Group Limited, Mannedorf, Zurich. For Aβ^1-40, tau441 and α-synuclein, fluorescence readings (λex=450 nm, λem=480 nm) were taken every 15 min., after first shaking at high intensity for 15 sec. and allowing to settle for 10 sec. before each reading. For Aβ^1-42, readings were taken every 5 min.
The absorbance of each compound was measured under the conditions used during testing, though on ten times the scale (2 mL), to ensure no significant quenching interfered with the assay. This step was also used to identify whether compounds were completely soluble under testing conditions.
FIG. 1 depicts the inhibition of Aβ^1-40 aggregation, as measured by Thioflavin T (ThT) fluorescence, by directly-linked 3,3′-bis-indolyl compounds 0c-i (A), other bis-indoles (B), aza-indole-containing compounds (C), indole-phenols (D), indole-5-carboxylic acid-containing bi-aromatics (E), and naphthol-containing bi-aromatics (F). Aggregation conditions: 20 μM Aβ^1-40 incubated in covered black 96-well polystyrene microplates with 4 μM ThT, pH 7.4, Tris-HCl (20 mM), 150 mM NaCl, 1% DMSO. Compound concentrations are 200 μM (A,B, except where otherwise noted), 100 μM (E), 20 μM (F), or as indicated (C,D). Plates heated at 37° C. in Tecan Genios microplate reader. All incubations performed in triplicate. Prior to experiment, Aβ^1-40 pretreated with 1,1,1,3,3,3-hexafluoroisopropanol (HFIP). Fluorescence readings: fluorescence measured every 15 min. (λex=450 nm, λem=480 nm) after shaking for 15 sec. and pausing 10 sec. before taking measurement. Values are the mean of three replicates. Error bars, omitted for clarity in (B), represent standard deviation of the mean.

[3] = target: T2, α-synuclein (Homo sapiens, UniProt P37840); test: α-Synuclein aggregation ThT fluorescence assay; settings: α-Synuclein (6 μM), 10 μM ThT, pH 7.4, 37° C., compound 100 μM or as indicated
T2 construct: purchased rPeptide, Bogart, GA
Procedure: α-Synuclein (1.0 mg) was dissolved directly in Tris-HCl (11.53 mL, 20 mM, pH 7.4, 100 mM NaCl) containing DTT (5 mM) and ThT (10 μM).
as §1, with “Incubations were performed in triplicate and were taken to contain 20 μM Aβ^1-40 or Aβ^1-42, 6 μM tau441 or 4 μM α-synuclein.” left out
FIG. 12 depicts inhibition of α-synuclein aggregation by synthesized bi-aromatics and positive control morin (K, Yamada M. 2006. J Neurochem 97:105-15). Aggregation conditions: α-Synuclein (6 μM) was incubated in covered black 96-well polystyrene microplates in Tris-HCl (20 mM, pH 7.4), 10 μM ThT, 1% DMSO with compound concentrations of 100 μM (A) or as indicated (B). Plates were heated at 37° C. in a Tecan Genios microplate reader. […] Fluorescence readings: fluorescence was measured every 15 min. […]

T1 sequence (P05067 672-711 limits assumed): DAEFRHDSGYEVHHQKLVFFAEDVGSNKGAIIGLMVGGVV

## O=C(O)c1ccc2[nH]cc(-c3c[nH]c4ccc(Br)cc34)c2c1 [0c, 3-(5-bromo-indol-3-yl)-indole-5-carboxylic Acid]
[1]
  inhibition of Aβ1-40 aggregation in “seeded” ThT assay: inhibition
[2]
  inhibition of Aβ1-40 aggregation, as measured by Thioflavin T (ThT) fluorescence: dose-response effect

## O=c1c(O)c(-c2ccc(O)cc2O)oc2cc(O)cc(O)c12 [morin]
[3]
  inhibition of α-synuclein aggregation (ThT fluorescence): inhibition
[2]
  inhibition of Aβ1-40 aggregation, as measured by Thioflavin T (ThT) fluorescence: inhibition
